Data: patent publication US20070219275A1, “Use of Benzophenone Uv Filters for Preventing Tanning” (priority 2004, published 2007)

Tested on: skin pigmentation on the back of Asian volunteers
Experiment: Tanning prevention: skin color (L*a*b*, Minolta chromameter) on the back of volunteers irradiated with simulated solar light
Assay type: in vivo, human
Conditions: day cream with 5% compound
Experimental: Skin color was measured in the L*a*b* colour by means of a Minolta CM-508i®) Chromameter).
10 Volunteers of originating from S-E-Asia and with a skinlightness L* between 65.4 and 40.8 were recruited following COLIPA-Guidelines.
The influence of extensive sun exposure on skin pigmentation and the protective effects of day care cosmetics were directly measured on the back of volunteers:
40 and 20 minutes prior to irradiation volunteers treated on the back with 2 mg/cm^2 of cream formulation.
Then tey were irradiated with simulated solar light for 12 weeks, 3-times a week with a dose≦1 MED (Minimal erythema dose; MED adjusted monthly).
The skin of the volunteers was assessed prior to the test and monthly prior to cream application and irradiation.
The influence of extensive sun exposure on skin pigmentation and the protective effects of a day cream containing
was directly measured on the back of Asian volunteers.
The skin of the volunteers was assessed prior to the test and monthly prior to cream application and irradiation for skin color by a Minolta Colorimeter 508i.

[1] = After 4 weeks, irradiation 3x/week <1 MED
[2] = After 8 weeks, irradiation 3x/week <1 MED
[3] = After 12 weeks, irradiation 3x/week <1 MED
[4] = Start, 2 mg/cm^2, 10 Asian volunteers

## CCCCCCOC(=O)c1ccccc1C(=O)c1ccc(N(CC)CC)cc1O [compound of formula (3)]
[1]
  L* (skin color): 50.5
  a* (skin color): 23.1
  b* (skin color): 22.6
[2]
  L* (skin color): 48.8
  a* (skin color): 22.6
  b* (skin color): 23.3
[3]
  L* (skin color): 47.7
  a* (skin color): 21.5
  b* (skin color): 24.6
[4]
  L* (skin color): 53.3
  a* (skin color): 22.5
  b* (skin color): 22.5
